In ChEMBL document CHEMBL3046910, “Synthesis and pharmacological evaluation of antioxidant chalcone derivatives of 2(3H)-benzoxazolones” (Med Chem Res, 2009):

Key:
Assay type in all cases: functional
[1] = Antioxidant activity against copper-mediated LDL oxidation assessed as oxidized LDL type E level at 3 x 10 '-5 M by FPLC method
Oryctolagus cuniculus [2] = experiment: Antioxidant activity against copper-induced LDL oxidation in Watanabe Oryctolagus cuniculus (rabbit) assessed as time duration of protection at 250 mg/kg, po administered as single dose
[3] = Antioxidant activity against copper-mediated LDL oxidation assessed as oxidized LDL type D level at 3 x 10 '-5 M by FPLC method
[4] = Antioxidant activity assessed as inhibition of copper-mediated LDL oxidation by FPLC method
[5] = Antioxidant activity assessed as inhibition of copper-mediated LDL oxidation by FPLC method relative to probucol
[6] = Antioxidant activity assessed as inhibition of copper-mediated LDL oxidation at 3 x 10 '-6 M by FPLC method; conditions: TDE = time-dependent effect
[7] = Antioxidant activity against copper-mediated LDL oxidation assessed as oxidized LDL type D level at 3 x 10 '-6 M by FPLC method
[8] = Antioxidant activity against copper-mediated LDL oxidation assessed as oxidized LDL type C level at 3 x 10 '-6 M by FPLC method
Oryctolagus cuniculus [9] = experiment: Antioxidant activity against copper-induced LDL oxidation in Watanabe Oryctolagus cuniculus (rabbit) assessed as time duration of protection at 50 mg/kg, po administered as single dose
[10] = Antioxidant activity against copper-mediated LDL oxidation assessed as native LDL type B level at 3 x 10 '-6 M by FPLC method

IC50 [4] [µM]	SMILES	Activity [1] [%]	Time (Oryctolagus cuniculus [2]) [h]	Activity [3] [%]	Ratio [5]	Activity [6]	Activity [7] [%]	Activity [8] [%]	Time (Oryctolagus cuniculus [9]) [h]	Activity [10] [%]	Activity [4]
30	CC(C)(Sc1cc(C(C)(C)C)c(O)c(C(C)(C)C)c1)Sc1cc(C(C)(C)C)c(O)c(C(C)(C)C)c1 [PROBUCOL]	52	48	48							
3	CC1/C(=C\c2cc(C(C)(C)C)c(O)c(C(C)(C)C)c2)C(=O)c2cc3oc(=O)n(C)c3cc21 (configuration not stated)				10	tde	8	8	48	84	Dose-dependent effect
